# Data as given in article PMC5766998, “Determination of the native features of the exoglucanase Cel48S from Clostridium thermocellum” (Biotechnology for Biofuels, 2018).
# Molecular target: T1, ctCel48S_CD (Acetivibrio thermocellus, UniProt C7ED31)
# T1 construct: GH48 catalytic domain, dockerin removed by inserted stop codon; C-terminal Gly5 linker and His12 tag kept; purified from culture supernatant of C. thermocellum DSM1313 (secreted); monomer
# Experiment: reducing sugars released, HPLC
# Format: biochemical
# Conditions: 1% (wt/vol) substrate, 50 mM succinate pH 5.7, 10 mM CaCl2, 55 °C, 5 h
# T1 sequence (C7ED31 entry or part of it): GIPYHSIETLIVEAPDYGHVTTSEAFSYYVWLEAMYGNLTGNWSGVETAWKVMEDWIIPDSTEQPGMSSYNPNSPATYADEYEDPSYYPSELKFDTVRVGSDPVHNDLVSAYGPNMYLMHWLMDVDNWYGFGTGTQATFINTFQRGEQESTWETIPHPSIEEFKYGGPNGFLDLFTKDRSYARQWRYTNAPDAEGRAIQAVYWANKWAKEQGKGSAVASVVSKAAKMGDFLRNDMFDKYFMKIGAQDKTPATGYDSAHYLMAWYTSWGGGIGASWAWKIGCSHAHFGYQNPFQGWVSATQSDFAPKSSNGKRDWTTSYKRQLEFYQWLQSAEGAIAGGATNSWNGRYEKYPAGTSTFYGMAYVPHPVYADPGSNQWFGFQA
row,Compound,"reducing sugars released, HPLC"
1,OC[C@H]1O[C@@H](O[C@H]2[C@H](O)[C@@H](O)[C@H](O[C@H]3[C@H](O)[C@@H](O)[C@H](O[C@H]4[C@H](O)[C@@H](O)C(O)O[C@@H]4CO)O[C@@H]3CO)O[C@@H]2CO)[C@H](O)[C@@H](O)[C@@H]1O (some centres unmarked) [cellotetrose],ctCel48S_CD could also hydrolyze cellopentose and cellotetrose
2,OC[C@H]1O[C@@H](O[C@H]2[C@H](O)[C@@H](O)[C@H](O[C@H]3[C@H](O)[C@@H](O)[C@H](O[C@H]4[C@H](O)[C@@H](O)[C@H](O[C@H]5[C@H](O)[C@@H](O)C(O)O[C@@H]5CO)O[C@@H]4CO)O[C@@H]3CO)O[C@@H]2CO)[C@H](O)[C@@H](O)[C@@H]1O (some centres unmarked) [cellopentose],ctCel48S_CD could also hydrolyze cellopentose and cellotetrose
